Laboratory results: US12043599B2, “Herbicidal compounds” (SYNGENTA PARTICIPATIONS AG, priority 2018, dated 2024)

How the values were obtained:
Format in all cases: in vivo
Conditions in all cases: 250 g/h, evaluated after 13 days
[1] = tested on: Setaria faberi (SETFA); assay: Post-emergence herbicidal glasshouse test, percentage damage
Procedure: (§1) Seeds of a variety of test species are sown in standard soil in pots (Lolium perenne (LOLPE), Setaria faberi (SETFA), Alopecurus myosuroides (ALOMY), Echinochloa crus-galli (ECHCG), Avena fatua (AVEFA)). After cultivation for one day (pre-emergence) or after 8 days cultivation (post-emergence) under controlled conditions in a glasshouse (at 24/16° C., day/night; 14 hours light; 65% humidity), the plants are sprayed with an aqueous spray solution derived from the formulation of the technical active ingredient in acetone/water (50:50) solution containing 0.5% Tween 20 (polyoxyethelyene sorbitan monolaurate, CAS RN 9005-64-5). Compounds are applied at […]. The test plants are then grown in a glasshouse under controlled conditions in a glasshouse (at 24/16° C., day/night; 14 hours light; 65% humidity) and watered twice daily. After 13 days for pre and post-emergence, the test is evaluated for the percentage damage caused to the plant. The biological activities are shown in the following table on a five point scale (5=80-100%; 4=60-79%; 3=40-59%; 2=20-39%; 1=0-19%).
Using procedures outlines above, wheat and barley crop plants and a weed species (SETFA) are treated post-emergence with compound A11 of the present invention or comparator compound C1 (Compound A-38 from WO2014/096289) at the application rates indicated. The compounds were also applied to wheat in conjunction with the safener compound cloquintocet-mexyl (CQC) at 50 g/ha.

[2] = tested on: Lolium perenne (LOLPE); assay: Pre-emergence herbicidal glasshouse test, percentage damage
Procedure: as §1

[3] = tested on: Echinochloa crus-galli (ECHCG); assay: as above
Procedure: as §1

[4] = tested on: Avena fatua (AVEFA); assay: as above
Procedure: as §1

[5] = tested on: Setaria faberi (SETFA); assay: as above
Procedure: as §1

[6] = tested on: Alopecurus myosuroides (ALOMY); assay: as above
Procedure: as §1

[7] = tested on: Lolium perenne (LOLPE); assay: Post-emergence herbicidal glasshouse test, percentage damage
Procedure: as §1

[8] = tested on: Echinochloa crus-galli (ECHCG); assay: as above
Procedure: as §1

[9] = tested on: Avena fatua (AVEFA); assay: as above
Procedure: as §1

Row | Compound | SETFA POST percentage damage (five point scale) [1] | LOLPE PRE percentage damage (five point scale) [2] | ECHCG PRE percentage damage (five point scale) [3] | AVEFA PRE percentage damage (five point scale) [4] | SETFA PRE percentage damage (five point scale) [5] | ALOMY PRE percentage damage (five point scale) [6] | LOLPE POST percentage damage (five point scale) [7] | ECHCG POST percentage damage (five point scale) [8] | AVEFA POST percentage damage (five point scale) [9]
1 | CC#Cc1cc(C)c(C2C(=O)CC3(CCN(C(=O)c4nc(OC)n(C)n4)CC3)CC2=O)c(C)c1 [Compound A105] | 5 (5=80-100%) | 5 (5=80-100%) | 5 (5=80-100%) | 5 (5=80-100%) | 5 (5=80-100%) | 5 (5=80-100%) | 5 (5=80-100%) | 3 (3=40-59%) | 5 (5=80-100%)
2 | CC#Cc1cc(C)c(C2C(=O)CC3(CCN(C(=O)NC(=O)C4CC4)CC3)CC2=O)c(C)c1 [Compound A141] | 5 (5=80-100%) | 5 (5=80-100%) | 5 (5=80-100%) | 4 (4=60-79%) | 5 (5=80-100%) | – | 5 (5=80-100%) | 5 (5=80-100%) | 5 (5=80-100%)
3 | CC#Cc1cc(C)c(C2C(=O)CC3(CCN(C(=O)NC(=O)C(C)C)CC3)CC2=O)c(C)c1 [Compound A142] | 5 (5=80-100%) | 5 (5=80-100%) | 5 (5=80-100%) | 4 (4=60-79%) | 5 (5=80-100%) | – | 5 (5=80-100%) | 5 (5=80-100%) | 5 (5=80-100%)
4 | CC#Cc1cc(C)c(C2C(=O)CC3(CCN(C4=NOC(C)(C)C4)CC3)CC2=O)c(C)c1 [Compound A143] | 5 (5=80-100%) | 5 (5=80-100%) | 5 (5=80-100%) | 4 (4=60-79%) | 5 (5=80-100%) | – | 5 (5=80-100%) | 5 (5=80-100%) | 5 (5=80-100%)
5 | CC#Cc1cc(C)c(C2=C(OC(=O)OC)CC3(CCN(C(=O)c4cccnc4)CC3)CC2=O)c(C)c1 [Compound P35] | 5 (5=80-100%) | 5 (5=80-100%) | 5 (5=80-100%) | 5 (5=80-100%) | 5 (5=80-100%) | 5 (5=80-100%) | 5 (5=80-100%) | 5 (5=80-100%) | 5 (5=80-100%)
6 | CC#Cc1cc(C)c(C2=C(OC(=O)c3cccnc3)CC3(CCN(C(=O)c4cccnc4)CC3)CC2=O)c(C)c1 [Compound P36] | 5 (5=80-100%) | 5 (5=80-100%) | 5 (5=80-100%) | 4 (4=60-79%) | 5 (5=80-100%) | – | 5 (5=80-100%) | 5 (5=80-100%) | 5 (5=80-100%)
7 | CC#Cc1cc(C)c(C2=C(OC(=O)OC)CC3(CCN(C(=O)c4ccncn4)CC3)CC2=O)c(C)c1 [Compound P37] | 5 (5=80-100%) | 5 (5=80-100%) | 5 (5=80-100%) | 5 (5=80-100%) | 5 (5=80-100%) | 5 (5=80-100%) | 5 (5=80-100%) | 5 (5=80-100%) | 5 (5=80-100%)
8 | CC#Cc1cc(C)c(C2=C(OC(=O)OC)CC3(CCN(C(=O)c4cnccn4)CC3)CC2=O)c(C)c1 [Compound P38] | 5 (5=80-100%) | 5 (5=80-100%) | 5 (5=80-100%) | 5 (5=80-100%) | 5 (5=80-100%) | 5 (5=80-100%) | 5 (5=80-100%) | 5 (5=80-100%) | 5 (5=80-100%)
9 | CC#Cc1cc(C)c(C2=C(OC(=O)OC)CC3(CCN(C(=O)C4=NOC(C)(C)C4)CC3)CC2=O)c(C)c1 [Compound P39] | 5 (5=80-100%) | 5 (5=80-100%) | 5 (5=80-100%) | 5 (5=80-100%) | 5 (5=80-100%) | 5 (5=80-100%) | 5 (5=80-100%) | 5 (5=80-100%) | 5 (5=80-100%)
10 | CC#Cc1cc(C)c(C2=C(OC(=O)OC)CC3(CCN(C(=O)C4CCOCC4)CC3)CC2=O)c(C)c1 [Compound P40] | 5 (5=80-100%) | 5 (5=80-100%) | 5 (5=80-100%) | 5 (5=80-100%) | 5 (5=80-100%) | 5 (5=80-100%) | 5 (5=80-100%) | 5 (5=80-100%) | 5 (5=80-100%)
11 | CC#Cc1cc(C)c(C2=C(OC(C)=O)CC3(CCN(C(=O)CC#N)CC3)CC2=O)c(C)c1 [Compound P41] | 5 (5=80-100%) | 5 (5=80-100%) | 5 (5=80-100%) | 5 (5=80-100%) | 5 (5=80-100%) | 5 (5=80-100%) | 5 (5=80-100%) | 5 (5=80-100%) | 5 (5=80-100%)
12 | CC#Cc1cc(C)c(C2=C(OC(=O)OC)CC3(CCN(C(=O)C4CC4)CC3)CC2=O)c(C)c1 [Compound P42] | 5 (5=80-100%) | 5 (5=80-100%) | 5 (5=80-100%) | 5 (5=80-100%) | 5 (5=80-100%) | 5 (5=80-100%) | 5 (5=80-100%) | 5 (5=80-100%) | 5 (5=80-100%)
13 | CC#Cc1cc(C)c(C2=C(OC(=O)OC)CC3(CCN(C(=O)c4ccncc4)CC3)CC2=O)c(C)c1 [Compound P45] | 5 (5=80-100%) | 5 (5=80-100%) | 5 (5=80-100%) | 5 (5=80-100%) | 5 (5=80-100%) | – | 5 (5=80-100%) | 5 (5=80-100%) | 5 (5=80-100%)
14 | CC#Cc1cc(C)c(C2=C(OC(=O)OC)CC3(CCN(C(=O)NC(=O)c4ccccn4)CC3)CC2=O)c(C)c1 [Compound P46] | 5 (5=80-100%) | 5 (5=80-100%) | 5 (5=80-100%) | 2 (2=20-39%) | 5 (5=80-100%) | – | 5 (5=80-100%) | 5 (5=80-100%) | 5 (5=80-100%)
15 | CC#Cc1cc(C)c(C2=C(OC(=O)OC)CC3(CCN(C(=O)Cc4ccccn4)CC3)CC2=O)c(C)c1 [Compound P47] | 5 (5=80-100%) | 5 (5=80-100%) | 5 (5=80-100%) | 5 (5=80-100%) | 5 (5=80-100%) | – | 5 (5=80-100%) | 5 (5=80-100%) | 5 (5=80-100%)
